# Laboratory results as given in patent publication US9451764B2, “Composition comprising insecticide-wax particles” (priority 2010, dated 2016).
# System: Blattella germanica
# Experiment: Activity of different insecticides on timber, cement and tile
# Type: in vivo
# Excerpt: Example e) illustrates that other active ingredients as well can be used successfully in the context of this invention (as a diluted suspension concentration, i.e. as a spraying liquor of the invention). In addition to deltamethrin, both bendiocarb and beta-cyfluthrin and cyfluthrin can be encapsulated.
# [1] = 50 mg/m^2 (reduced concentration), Cement
# [2] = 50 mg/m^2 (reduced concentration), Tile
# [3] = 100 mg/m^2 (standard concentration), Cement, 30-minute exposure
# [4] = 100 mg/m^2 (standard concentration), Tile, 30-minute exposure
# [5] = 4 mg/m^2 (reduced concentration), Cement
# [6] = 4 mg/m^2 (reduced concentration), Tile
# [7] = 4 mg/m^2 (reduced concentration), Timber
# [8] = 12.5 mg/m^2 (standard concentration), Cement, 30-minute exposure
# [9] = 12.5 mg/m^2 (standard concentration), Tile, 30-minute exposure
# [10] = 12.5 mg/m^2 (standard concentration), Timber, 30-minute exposure
# [11] = 8 mg/m^2 (reduced concentration), Cement
# [12] = 8 mg/m^2 (reduced concentration), Tile
# [13] = 8 mg/m^2 (reduced concentration), Timber
# [14] = 25 mg/m^2 (standard concentration), Cement, 30-minute exposure
# [15] = 25 mg/m^2 (standard concentration), Tile, 30-minute exposure
# [16] = 25 mg/m^2 (standard concentration), Timber, 30-minute exposure
smiles,measurement,setting,value
"CNC(=O)Oc1cccc2c1OC(C)(C)O2 [Bendiocarb, bendiocarb]",Knockdown after 1 h,[1],90%
same,Mortality after 24 h,[1],100%
same,Knockdown after 1 h,[2],100%
same,Mortality after 24 h,[2],100%
same,Knockdown after 1 h,"50 mg/m^2 (reduced concentration), Timber",50%
same,Knockdown after 1 h,[3],100%
same,Mortality after 24 h,[3],100%
same,Knockdown after 1 h,[4],100%
same,Mortality after 24 h,[4],100%
same,Knockdown after 1 h,"100 mg/m^2 (standard concentration), Timber, 30-minute exposure",60%
same,mortality at 50 mg/m2,"Blattella germanica, 24 h, read-out: Mortality after 24 h",100%
same,mortality at 100 mg/m2,"Blattella germanica, read-out: Mortality after 24 h",100%
"CC1(C)C(C=C(Cl)Cl)C1C(=O)OC(C#N)c1ccc(F)c(Oc2ccccc2)c1 (stereo not drawn) [Beta-cyfluthrin, beta-cyfluthrin]",Knockdown after 1 h,[5],100%
same,Mortality after 24 h,[5],100%
same,Knockdown after 1 h,[6],100%
same,Mortality after 24 h,[6],100%
same,Knockdown after 1 h,[7],100%
same,Mortality after 24 h,[7],100%
same,Knockdown after 1 h,[8],100%
same,Mortality after 24 h,[8],100%
same,Knockdown after 1 h,[9],100%
same,Mortality after 24 h,[9],100%
same,Knockdown after 1 h,[10],100%
same,Mortality after 24 h,[10],100%
"CC1(C)[C@H](C(=O)O[C@H](C#N)c2cccc(Oc3ccccc3)c2)[C@@H]1C=C(Br)Br [Deltamethrin, deltamethrin]",Knockdown after 1 h,[5],100%
same,Mortality after 24 h,[5],100%
same,Knockdown after 1 h,[6],100%
same,Mortality after 24 h,[6],100%
same,Knockdown after 1 h,[7],100%
same,Knockdown after 1 h,[8],100%
same,Mortality after 24 h,[8],100%
same,Knockdown after 1 h,[9],100%
same,Mortality after 24 h,[9],100%
same,Knockdown after 1 h,[10],100%
same,mortality at 4 mg/m2,"Blattella germanica, 24 h, 4 mg/m^2 (reduced concentration), Timber, read-out: Mortality after 24 h",100%
same,mortality at 12.5 mg/m2,"Blattella germanica, 12.5 mg/m^2 (standard concentration), Timber, 30-minute exposure, read-out: Mortality after 24 h",100%
CC1(C)C(C=C(Cl)Cl)C1C(=O)OC(C#N)c1ccc(F)c(Oc2ccccc2)c1 (stereo not drawn) [cyfluthrin],Knockdown after 1 h,[11],100%
same,Mortality after 24 h,[11],100%
same,Knockdown after 1 h,[12],100%
same,Mortality after 24 h,[12],100%
same,Knockdown after 1 h,[13],100%
same,Mortality after 24 h,[13],100%
same,Knockdown after 1 h,[14],100%
same,Mortality after 24 h,[14],100%
same,Knockdown after 1 h,[15],100%
same,Mortality after 24 h,[15],100%
same,Knockdown after 1 h,[16],100%
same,Mortality after 24 h,[16],100%
